Read-outs that look alike come from different tables or passages of the source.
What was measured:
Type in all cases: cell-based
hGCGR = target: T1, hGCGR (Homo sapiens, UniProt P47871); assay: Functional cAMP formation (HTRF) in HEK-293 clonal cells expressing hGCGR, 0.1% bovine casein, without or with 1.0% human serum albumin; conditions: hGCGR EC50, nM (SEM, n), geometric mean
T1 construct: expressed in transfected cells
Outline: (§1)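 Readings of the HTRF 665/620 nm ratio, which falls as cAMP rises, were converted to nM cAMP using a standard curve after 30 min peptide exposure at 37° C.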

hGIPR = target: T2, hGIPR (Homo sapiens, UniProt P48546); assay: Functional cAMP formation (HTRF) in HEK-293 clonal cells expressing hGIPR, 0.1% bovine casein, without or with 1.0% human serum albumin
T2 construct: expressed in transfected cells
T2 sequence (P48546 22-466): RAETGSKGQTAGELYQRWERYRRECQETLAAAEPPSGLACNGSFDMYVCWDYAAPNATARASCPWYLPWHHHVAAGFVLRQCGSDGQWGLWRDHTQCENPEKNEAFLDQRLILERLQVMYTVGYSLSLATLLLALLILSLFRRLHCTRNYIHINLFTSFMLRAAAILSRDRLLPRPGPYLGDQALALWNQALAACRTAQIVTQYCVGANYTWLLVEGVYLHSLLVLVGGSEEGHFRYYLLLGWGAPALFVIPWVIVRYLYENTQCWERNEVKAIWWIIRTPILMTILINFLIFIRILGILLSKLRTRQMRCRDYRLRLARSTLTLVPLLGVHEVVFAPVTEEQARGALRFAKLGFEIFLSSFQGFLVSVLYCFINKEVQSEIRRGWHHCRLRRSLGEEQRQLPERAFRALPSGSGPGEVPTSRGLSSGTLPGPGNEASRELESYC
Outline: as §1

hGLP-1R = hGLP-1R (Homo sapiens, UniProt P43220); assay: Functional cAMP formation (HTRF) in HEK-293 clonal cells expressing hGLP-1R, 0.1% bovine casein, without or with 1.0% human serum albumin; parameters: expressed in transfected cells; conditions: for EC50: hGLP-1R EC50, nM (SEM, n), cAMP, 0.1% bovine casein (no human serum albumin), geometric mean
Outline: as §1

Sequence of hGLP-1R (P43220 24-463): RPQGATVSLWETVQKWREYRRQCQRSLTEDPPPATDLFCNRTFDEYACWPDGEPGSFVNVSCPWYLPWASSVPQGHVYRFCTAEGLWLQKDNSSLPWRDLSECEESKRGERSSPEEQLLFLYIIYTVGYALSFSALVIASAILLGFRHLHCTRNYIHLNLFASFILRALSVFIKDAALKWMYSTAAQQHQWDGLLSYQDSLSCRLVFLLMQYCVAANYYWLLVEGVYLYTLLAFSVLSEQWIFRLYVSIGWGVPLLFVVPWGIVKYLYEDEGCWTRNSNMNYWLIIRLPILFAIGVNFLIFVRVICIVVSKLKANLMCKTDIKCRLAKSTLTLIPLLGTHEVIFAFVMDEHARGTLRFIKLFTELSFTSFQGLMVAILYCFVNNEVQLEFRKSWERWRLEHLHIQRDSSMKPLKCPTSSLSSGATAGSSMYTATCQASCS
T1 sequence (P47871 26-477): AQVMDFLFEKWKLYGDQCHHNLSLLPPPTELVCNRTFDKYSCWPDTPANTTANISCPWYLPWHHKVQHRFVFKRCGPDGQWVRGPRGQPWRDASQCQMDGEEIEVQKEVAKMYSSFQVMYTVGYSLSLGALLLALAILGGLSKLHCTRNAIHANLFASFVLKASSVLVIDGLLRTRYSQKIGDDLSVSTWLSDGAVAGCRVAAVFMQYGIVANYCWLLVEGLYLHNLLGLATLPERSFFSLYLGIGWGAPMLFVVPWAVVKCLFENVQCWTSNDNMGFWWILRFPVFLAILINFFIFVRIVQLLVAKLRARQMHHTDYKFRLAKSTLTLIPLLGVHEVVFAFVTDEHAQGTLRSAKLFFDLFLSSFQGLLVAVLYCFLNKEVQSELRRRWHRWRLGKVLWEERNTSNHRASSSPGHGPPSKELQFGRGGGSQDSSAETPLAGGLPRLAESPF

| SMILES | EC50 (hGCGR; cAMP, incubated at 37° C., 0.1% bovine casein (no human serum albumin)) [nM] | Emax (hGIPR; HEK293, read-out: hGIPR Emax, % ± SEM, percent of maximal response to GIP(1-42)NH2, 37° C., 0.1% bovine casein, arithmetic mean) [%] | EC50 (hGIPR; hGIPR EC50, nM (SEM, n), cAMP, incubated at 37° C., 0.1% bovine casein (no human serum albumin), geometric mean) [nM] | EC50 (hGLP-1R; incubated at 37° C.) [nM] | EC50 (hGCGR; 0.1% bovine casein and 1.0% human serum albumin, 37° C.) [nM] | EC50 (hGCGR; cAMP, 37° C., 0.1% bovine casein (no human serum albumin)) [nM] | Emax (hGIPR; HEK293, read-out: hGIPR Emax, % ± SEM, 0.1% bovine casein and 1.0% human serum albumin, 37° C., percent of maximal response to GIP(1-42)NH2) [%] | Emax (hGLP-1R; HEK293, read-out: hGLP-1R Emax, % ± SEM, 0.1% bovine casein and 1.0% human serum albumin, 37° C., percent of maximal response to GLP-1(7-36)NH2) [%] | EC50 (hGLP-1R; 37° C.) [nM] |
| --- | --- | --- | --- | --- | --- | --- | --- | --- | --- |
| CC[C@H](C)[C@H](NC(=O)[C@H](CC(C)C)NC(=O)[C@](C)(Cc1ccc(O)cc1)NC(=O)[C@H](CCCCNC(=O)COCCOCCNC(=O)COCCOCCNC(=O)CC[C@H](NC(=O)CCCCCCCCCCCCC(=O)O)C(=O)O)NC(=O)[C@@H](NC(=O)[C@H](Cc1ccccc1)NC(=O)[C@H](CCC(=O)O)NC(=O)C(C)(C)NC(=O)[C@H](CCC(N)=O)NC(=O)[C@H](C)NC(=O)[C@H](CCCCNC(=O)COCCOCCNC(=O)COCCOCCNC(=O)CC[C@H](NC(=O)CCCCCCCCCCCCC(=O)O)C(=O)O)NC(=O)[C@H](CCCN)NC(=O)[C@H](CC(=O)O)NC(=O)[C@H](CC(C)C)NC(=O)[C@](C)(CC(C)C)NC(=O)[C@@H](NC(=O)[C@H](CO)NC(=O)[C@@H](NC(=O)[C@H](CC(=O)O)NC(=O)[C@H](CO)NC(=O)[C@@H](NC(=O)[C@](C)(Cc1ccccc1)NC(=O)[C@@H](NC(=O)CNC(=O)[C@H](CCC(=O)O)NC(=O)C(C)(C)NC(=O)[C@@H](N)Cc1ccc(O)cc1)[C@@H](C)O)[C@@H](C)O)C(C)C)[C@@H](C)CC)[C@@H](C)CC)C(=O)N[C@@H](CCC(=O)O)C(=O)NCC(=O)NCC(=O)N1CCC[C@H]1C(=O)N[C@@H](CO)C(=O)N[C@@H](CO)C(=O)NCC(=O)N[C@@H](C)C(=O)N1CCC[C@H]1C(=O)N1CCC[C@H]1C(=O)N1CCC[C@H]1C(=O)N[C@@H](CO)C(N)=O [Example 181] | > 9950 | 94.6 | 0.154 | 0.182 |  |  |  |  |  |
| CC[C@H](C)[C@H](NC(=O)[C@H](CCCN)NC(=O)[C@H](CC(=O)O)NC(=O)[C@H](CC(C)C)NC(=O)[C@](C)(CC(C)C)NC(=O)[C@@H](NC(=O)[C@H](CO)NC(=O)[C@H](Cc1ccc2ccccc2c1)NC(=O)[C@H](CC(=O)O)NC(=O)[C@H](CO)NC(=O)[C@@H](NC(=O)[C@](C)(Cc1ccccc1F)NC(=O)[C@@H](NC(=O)CNC(=O)[C@H](CCC(=O)O)NC(=O)C(C)(C)NC(=O)[C@@H](N)Cc1ccc(O)cc1)[C@@H](C)O)[C@@H](C)O)[C@@H](C)CC)C(=O)N[C@@H](C)C(=O)N[C@@H](CCC(N)=O)C(=O)NC(C)(C)C(=O)N[C@@H](CCC(=O)O)C(=O)N[C@@H](Cc1ccccc1)C(=O)N[C@H](C(=O)N[C@@H](CCCCNC(=O)COCCOCCNC(=O)COCCOCCNC(=O)CC[C@H](NC(=O)CCCCCCCCCOc1ccc(C(=O)O)cc1)C(=O)O)C(=O)N[C@@](C)(Cc1ccc(O)cc1)C(=O)N[C@@H](CC(C)C)C(=O)N[C@H](C(=O)N[C@@H](CCCCNC(=O)COCCOCCNC(=O)COCCOCCNC(=O)CC[C@H](NC(=O)CCCCCCCCCOc1ccc(C(=O)O)cc1)C(=O)O)C(=O)NCC(=O)NCC(=O)N1CCC[C@H]1C(=O)N[C@@H](CO)C(=O)N[C@@H](CO)C(=O)NCC(=O)N[C@@H](C)C(=O)N1CCC[C@H]1C(=O)N1CCC[C@H]1C(=O)N1CCC[C@H]1C(=O)N[C@@H](CO)C(N)=O)[C@@H](C)CC)[C@@H](C)CC [Example 283] |  |  |  |  | > 9950 | > 9950 | 114 | 96.6 | 1.14 |
